ChEMBL document CHEMBL1153286, “Synthesis and biological evaluation of sulfonylurea and thiourea derivatives substituted with benzenesulfonamide groups as potential hypoglycemic agents” (Bioorg Med Chem Lett, 2009)

Test system: not listed separately
Experiment: Effect on insulin release in rat pancreatic cells at 1 umol/L after 6 hrs by radioimmunoassay
Format: functional

Row | SMILES | Activity
1 | COc1ccc(NC(=S)NS(=O)(=O)c2ccc(CCNS(=O)(=O)c3ccc(Cl)cc3)cc2)cc1 | 24.05 uIU/ml
2 | COc1ccc(NC(=S)NS(=O)(=O)c2ccc(CCNS(=O)(=O)c3ccccc3)cc2)cc1 | 22.86 uIU/ml
3 | O=C(NC1CCCCC1)NS(=O)(=O)c1ccc(CCNS(=O)(=O)c2ccc(Cl)cc2)cc1 | 33.95 uIU/ml
4 | CC1CCC(NC(=O)NS(=O)(=O)c2ccc(CCNS(=O)(=O)c3ccccc3)cc2)CC1 (centres undefined) | 32.15 uIU/ml
5 | Cc1ccc(S(=O)(=O)NCCc2ccc(S(=O)(=O)NC(=O)NC3CCCCC3)cc2)cc1 | 22.45 uIU/ml
6 | CC(=O)Nc1ccc(S(=O)(=O)NCCc2ccc(S(=O)(=O)NC(=O)NC3CCC(C)CC3)cc2)cc1C (centres undefined) | 23.57 uIU/ml
7 | CC(=O)Nc1ccc(S(=O)(=O)NCCc2ccc(S(=O)(=O)NC(=O)NC3CCC(C)CC3)cc2)cc1 (centres undefined) | 30.18 uIU/ml
8 | COc1cc(S(=O)(=O)NCCc2ccc(S(=O)(=O)NC(=O)NC3CCC(C)CC3)cc2)ccc1NC(C)=O (centres undefined) | 24.57 uIU/ml
9 | COc1ccc(NC(=S)NS(=O)(=O)c2ccc(CCNS(=O)(=O)c3ccc(Br)cc3)cc2)cc1 | 22.25 uIU/ml
10 | O=S(=O)(NCCc1ccc(S(=O)(=O)NC(=S)Nc2ccc(Cl)cc2)cc1)c1ccc(Cl)cc1 | 29.46 uIU/ml

Test system: not listed separately
Experiment: Effect on insulin release in rat pancreatic cells at 10 umol/L after 6 hrs by radioimmunoassay
Format: functional

Row | SMILES | Activity
11 | COc1ccc(NC(=S)NS(=O)(=O)c2ccc(CCNS(=O)(=O)c3ccc(Cl)cc3)cc2)cc1 | 24.36 uIU/ml
12 | COc1ccc(NC(=S)NS(=O)(=O)c2ccc(CCNS(=O)(=O)c3ccccc3)cc2)cc1 | 24.98 uIU/ml
13 | O=C(NC1CCCCC1)NS(=O)(=O)c1ccc(CCNS(=O)(=O)c2ccc(Cl)cc2)cc1 | 41.18 uIU/ml
14 | CC1CCC(NC(=O)NS(=O)(=O)c2ccc(CCNS(=O)(=O)c3ccccc3)cc2)CC1 (centres undefined) | 41.29 uIU/ml
15 | Cc1ccc(S(=O)(=O)NCCc2ccc(S(=O)(=O)NC(=O)NC3CCCCC3)cc2)cc1 | 22.7 uIU/ml
16 | CC(=O)Nc1ccc(S(=O)(=O)NCCc2ccc(S(=O)(=O)NC(=O)NC3CCC(C)CC3)cc2)cc1C (centres undefined) | 27.67 uIU/ml
17 | CC(=O)Nc1ccc(S(=O)(=O)NCCc2ccc(S(=O)(=O)NC(=O)NC3CCC(C)CC3)cc2)cc1 (centres undefined) | 36.67 uIU/ml
18 | COc1cc(S(=O)(=O)NCCc2ccc(S(=O)(=O)NC(=O)NC3CCC(C)CC3)cc2)ccc1NC(C)=O (centres undefined) | 24.47 uIU/ml
19 | COc1ccc(NC(=S)NS(=O)(=O)c2ccc(CCNS(=O)(=O)c3ccc(Br)cc3)cc2)cc1 | 24.67 uIU/ml
20 | O=S(=O)(NCCc1ccc(S(=O)(=O)NC(=S)Nc2ccc(Cl)cc2)cc1)c1ccc(Cl)cc1 | 26.37 uIU/ml

Test system: not listed separately
Experiment: Effect on insulin release in rat pancreatic cells at 100 umol/L after 6 hrs by radioimmunoassay
Format: functional

Row | SMILES | Activity
21 | COc1ccc(NC(=S)NS(=O)(=O)c2ccc(CCNS(=O)(=O)c3ccc(Cl)cc3)cc2)cc1 | 26.09 uIU/ml
22 | COc1ccc(NC(=S)NS(=O)(=O)c2ccc(CCNS(=O)(=O)c3ccccc3)cc2)cc1 | 23.42 uIU/ml
23 | O=C(NC1CCCCC1)NS(=O)(=O)c1ccc(CCNS(=O)(=O)c2ccc(Cl)cc2)cc1 | 55.03 uIU/ml
24 | CC1CCC(NC(=O)NS(=O)(=O)c2ccc(CCNS(=O)(=O)c3ccccc3)cc2)CC1 (centres undefined) | 52.23 uIU/ml
25 | Cc1ccc(S(=O)(=O)NCCc2ccc(S(=O)(=O)NC(=O)NC3CCCCC3)cc2)cc1 | 25.93 uIU/ml
26 | CC(=O)Nc1ccc(S(=O)(=O)NCCc2ccc(S(=O)(=O)NC(=O)NC3CCC(C)CC3)cc2)cc1C (centres undefined) | 37.32 uIU/ml
27 | CC(=O)Nc1ccc(S(=O)(=O)NCCc2ccc(S(=O)(=O)NC(=O)NC3CCC(C)CC3)cc2)cc1 (centres undefined) | 28.52 uIU/ml
28 | COc1cc(S(=O)(=O)NCCc2ccc(S(=O)(=O)NC(=O)NC3CCC(C)CC3)cc2)ccc1NC(C)=O (centres undefined) | 24.83 uIU/ml
29 | COc1ccc(NC(=S)NS(=O)(=O)c2ccc(CCNS(=O)(=O)c3ccc(Br)cc3)cc2)cc1 | 26.17 uIU/ml
30 | O=S(=O)(NCCc1ccc(S(=O)(=O)NC(=S)Nc2ccc(Cl)cc2)cc1)c1ccc(Cl)cc1 | 26.07 uIU/ml

Test system: Adipocyte
Experiment: Effect on 2-deoxy-D-[1-3H]glucose transport in Sprague-Dawley rat adipocytes at 1 uM in absence of insulin by liquid scintillation counting
Format: functional

Row | SMILES | Activity
31 | COc1ccc(NC(=S)NS(=O)(=O)c2ccc(CCNS(=O)(=O)c3ccccc3)cc2)cc1 | 4179.5 disintegrations/minute
32 | O=C(NC1CCCCC1)NS(=O)(=O)c1ccc(CCNS(=O)(=O)c2ccc(Cl)cc2)cc1 | 4576.35 disintegrations/minute
33 | Cc1ccc(S(=O)(=O)NCCc2ccc(S(=O)(=O)NC(=O)NC3CCCCC3)cc2)cc1 | 4281.3 disintegrations/minute
34 | CC(=O)Nc1ccc(S(=O)(=O)NCCc2ccc(S(=O)(=O)NC(=O)NC3CCC(C)CC3)cc2)cc1C (centres undefined) | 4302.19 disintegrations/minute
35 | CC(=O)Nc1ccc(S(=O)(=O)NCCc2ccc(S(=O)(=O)NC(=O)NC3CCC(C)CC3)cc2)cc1 (centres undefined) | 4215.36 disintegrations/minute
36 | COc1cc(S(=O)(=O)NCCc2ccc(S(=O)(=O)NC(=O)NC3CCC(C)CC3)cc2)ccc1NC(C)=O (centres undefined) | 5294.78 disintegrations/minute
37 | COc1ccc(NC(=S)NS(=O)(=O)c2ccc(CCNS(=O)(=O)c3ccc(Br)cc3)cc2)cc1 | 4125.36 disintegrations/minute
38 | O=S(=O)(NCCc1ccc(S(=O)(=O)NC(=S)Nc2ccc(Cl)cc2)cc1)c1ccc(Cl)cc1 | 4587.26 disintegrations/minute

Test system: Adipocyte
Experiment: Effect on 2-deoxy-D-[1-3H]glucose transport in Sprague-Dawley rat adipocytes at 1 uM in presence of insulin by liquid scintillation counting
Format: functional

Row | SMILES | Activity
39 | COc1ccc(NC(=S)NS(=O)(=O)c2ccc(CCNS(=O)(=O)c3ccccc3)cc2)cc1 | 5708.43 disintegrations/minute
40 | O=C(NC1CCCCC1)NS(=O)(=O)c1ccc(CCNS(=O)(=O)c2ccc(Cl)cc2)cc1 | 5217.31 disintegrations/minute
41 | Cc1ccc(S(=O)(=O)NCCc2ccc(S(=O)(=O)NC(=O)NC3CCCCC3)cc2)cc1 | 5374.21 disintegrations/minute
42 | CC(=O)Nc1ccc(S(=O)(=O)NCCc2ccc(S(=O)(=O)NC(=O)NC3CCC(C)CC3)cc2)cc1C (centres undefined) | 6123.02 disintegrations/minute
43 | CC(=O)Nc1ccc(S(=O)(=O)NCCc2ccc(S(=O)(=O)NC(=O)NC3CCC(C)CC3)cc2)cc1 (centres undefined) | 5087.78 disintegrations/minute
44 | COc1cc(S(=O)(=O)NCCc2ccc(S(=O)(=O)NC(=O)NC3CCC(C)CC3)cc2)ccc1NC(C)=O (centres undefined) | 5587.26 disintegrations/minute
45 | COc1ccc(NC(=S)NS(=O)(=O)c2ccc(CCNS(=O)(=O)c3ccc(Br)cc3)cc2)cc1 | 5177.84 disintegrations/minute
46 | O=S(=O)(NCCc1ccc(S(=O)(=O)NC(=S)Nc2ccc(Cl)cc2)cc1)c1ccc(Cl)cc1 | 5179.3 disintegrations/minute

Test system: Adipocyte
Experiment: Effect on 2-deoxy-D-[1-3H]glucose transport in Sprague-Dawley rat adipocytes at 10 uM in absence of insulin by liquid scintillation counting
Format: functional

Row | SMILES | Activity
47 | COc1ccc(NC(=S)NS(=O)(=O)c2ccc(CCNS(=O)(=O)c3ccccc3)cc2)cc1 | 4118.78 disintegrations/minute
48 | O=C(NC1CCCCC1)NS(=O)(=O)c1ccc(CCNS(=O)(=O)c2ccc(Cl)cc2)cc1 | 5878.83 disintegrations/minute
49 | Cc1ccc(S(=O)(=O)NCCc2ccc(S(=O)(=O)NC(=O)NC3CCCCC3)cc2)cc1 | 4174.59 disintegrations/minute
50 | CC(=O)Nc1ccc(S(=O)(=O)NCCc2ccc(S(=O)(=O)NC(=O)NC3CCC(C)CC3)cc2)cc1C (centres undefined) | 4573.8 disintegrations/minute
51 | CC(=O)Nc1ccc(S(=O)(=O)NCCc2ccc(S(=O)(=O)NC(=O)NC3CCC(C)CC3)cc2)cc1 (centres undefined) | 5616.15 disintegrations/minute
52 | COc1cc(S(=O)(=O)NCCc2ccc(S(=O)(=O)NC(=O)NC3CCC(C)CC3)cc2)ccc1NC(C)=O (centres undefined) | 6547.93 disintegrations/minute
53 | COc1ccc(NC(=S)NS(=O)(=O)c2ccc(CCNS(=O)(=O)c3ccc(Br)cc3)cc2)cc1 | 4026.52 disintegrations/minute
54 | O=S(=O)(NCCc1ccc(S(=O)(=O)NC(=S)Nc2ccc(Cl)cc2)cc1)c1ccc(Cl)cc1 | 4432.15 disintegrations/minute

Test system: Adipocyte
Experiment: Effect on 2-deoxy-D-[1-3H]glucose transport in Sprague-Dawley rat adipocytes at 10 uM in presence of insulin by liquid scintillation counting
Format: functional

Row | SMILES | Activity
55 | COc1ccc(NC(=S)NS(=O)(=O)c2ccc(CCNS(=O)(=O)c3ccccc3)cc2)cc1 | 7555.71 disintegrations/minute
56 | O=C(NC1CCCCC1)NS(=O)(=O)c1ccc(CCNS(=O)(=O)c2ccc(Cl)cc2)cc1 | 5933.89 disintegrations/minute
57 | Cc1ccc(S(=O)(=O)NCCc2ccc(S(=O)(=O)NC(=O)NC3CCCCC3)cc2)cc1 | 5533.15 disintegrations/minute
58 | CC(=O)Nc1ccc(S(=O)(=O)NCCc2ccc(S(=O)(=O)NC(=O)NC3CCC(C)CC3)cc2)cc1C (centres undefined) | 6516.9 disintegrations/minute
59 | CC(=O)Nc1ccc(S(=O)(=O)NCCc2ccc(S(=O)(=O)NC(=O)NC3CCC(C)CC3)cc2)cc1 (centres undefined) | 6200.35 disintegrations/minute
60 | COc1cc(S(=O)(=O)NCCc2ccc(S(=O)(=O)NC(=O)NC3CCC(C)CC3)cc2)ccc1NC(C)=O (centres undefined) | 6341.17 disintegrations/minute
61 | COc1ccc(NC(=S)NS(=O)(=O)c2ccc(CCNS(=O)(=O)c3ccc(Br)cc3)cc2)cc1 | 5234.61 disintegrations/minute
62 | O=S(=O)(NCCc1ccc(S(=O)(=O)NC(=S)Nc2ccc(Cl)cc2)cc1)c1ccc(Cl)cc1 | 5436.58 disintegrations/minute

Test system: Adipocyte
Experiment: Effect on 2-deoxy-D-[1-3H]glucose transport in Sprague-Dawley rat adipocytes at 100 uM in absence of insulin by liquid scintillation counting
Format: functional

Row | SMILES | Activity
63 | COc1ccc(NC(=S)NS(=O)(=O)c2ccc(CCNS(=O)(=O)c3ccccc3)cc2)cc1 | 4366.76 disintegrations/minute
64 | O=C(NC1CCCCC1)NS(=O)(=O)c1ccc(CCNS(=O)(=O)c2ccc(Cl)cc2)cc1 | 6632.7 disintegrations/minute
65 | Cc1ccc(S(=O)(=O)NCCc2ccc(S(=O)(=O)NC(=O)NC3CCCCC3)cc2)cc1 | 4458.36 disintegrations/minute
66 | CC(=O)Nc1ccc(S(=O)(=O)NCCc2ccc(S(=O)(=O)NC(=O)NC3CCC(C)CC3)cc2)cc1C (centres undefined) | 5207.81 disintegrations/minute
67 | CC(=O)Nc1ccc(S(=O)(=O)NCCc2ccc(S(=O)(=O)NC(=O)NC3CCC(C)CC3)cc2)cc1 (centres undefined) | 6736.82 disintegrations/minute
68 | COc1cc(S(=O)(=O)NCCc2ccc(S(=O)(=O)NC(=O)NC3CCC(C)CC3)cc2)ccc1NC(C)=O (centres undefined) | 7037.78 disintegrations/minute
69 | COc1ccc(NC(=S)NS(=O)(=O)c2ccc(CCNS(=O)(=O)c3ccc(Br)cc3)cc2)cc1 | 4335.26 disintegrations/minute
70 | O=S(=O)(NCCc1ccc(S(=O)(=O)NC(=S)Nc2ccc(Cl)cc2)cc1)c1ccc(Cl)cc1 | 4763.58 disintegrations/minute

Test system: Adipocyte
Experiment: Effect on 2-deoxy-D-[1-3H]glucose transport in Sprague-Dawley rat adipocytes at 100 uM in presence of insulin by liquid scintillation counting
Format: functional

Row | SMILES | Activity
71 | COc1ccc(NC(=S)NS(=O)(=O)c2ccc(CCNS(=O)(=O)c3ccccc3)cc2)cc1 | 6987.19 disintegrations/minute
72 | O=C(NC1CCCCC1)NS(=O)(=O)c1ccc(CCNS(=O)(=O)c2ccc(Cl)cc2)cc1 | 6521.12 disintegrations/minute
73 | Cc1ccc(S(=O)(=O)NCCc2ccc(S(=O)(=O)NC(=O)NC3CCCCC3)cc2)cc1 | 5297.11 disintegrations/minute
74 | CC(=O)Nc1ccc(S(=O)(=O)NCCc2ccc(S(=O)(=O)NC(=O)NC3CCC(C)CC3)cc2)cc1C (centres undefined) | 7244.87 disintegrations/minute
75 | CC(=O)Nc1ccc(S(=O)(=O)NCCc2ccc(S(=O)(=O)NC(=O)NC3CCC(C)CC3)cc2)cc1 (centres undefined) | 6812.33 disintegrations/minute
76 | COc1cc(S(=O)(=O)NCCc2ccc(S(=O)(=O)NC(=O)NC3CCC(C)CC3)cc2)ccc1NC(C)=O (centres undefined) | 7447.72 disintegrations/minute
77 | COc1ccc(NC(=S)NS(=O)(=O)c2ccc(CCNS(=O)(=O)c3ccc(Br)cc3)cc2)cc1 | 5069.25 disintegrations/minute
78 | O=S(=O)(NCCc1ccc(S(=O)(=O)NC(=S)Nc2ccc(Cl)cc2)cc1)c1ccc(Cl)cc1 | 5764.25 disintegrations/minute

Test system: Adipocyte
Experiment: Increase in glucose absorption in Sprague-Dawley rat adipocytes at 100 uM by liquid scintillation counting relative to basal level
Format: functional

Row | SMILES | fold change (FC)
79 | COc1cc(S(=O)(=O)NCCc2ccc(S(=O)(=O)NC(=O)NC3CCC(C)CC3)cc2)ccc1NC(C)=O (centres undefined) | 1.58
